Measurements: patent publication US9580390B2, “Indazole compounds as kinase inhibitors and method of treating cancer with same” (University Health Network, priority 2011, dated 2017)
Like-named read-outs stand apart in the source and are kept apart here.

Tests used:
human TTK = biological target: T1, human TTK (Homo sapiens, UniProt P33981); assay: TTK inhibition assay (indirect ELISA); format: biochemical
T1 construct: amino terminal GST fusion of full length human TTK; purchased Invitrogen
T1 sequence (P33981 1-857): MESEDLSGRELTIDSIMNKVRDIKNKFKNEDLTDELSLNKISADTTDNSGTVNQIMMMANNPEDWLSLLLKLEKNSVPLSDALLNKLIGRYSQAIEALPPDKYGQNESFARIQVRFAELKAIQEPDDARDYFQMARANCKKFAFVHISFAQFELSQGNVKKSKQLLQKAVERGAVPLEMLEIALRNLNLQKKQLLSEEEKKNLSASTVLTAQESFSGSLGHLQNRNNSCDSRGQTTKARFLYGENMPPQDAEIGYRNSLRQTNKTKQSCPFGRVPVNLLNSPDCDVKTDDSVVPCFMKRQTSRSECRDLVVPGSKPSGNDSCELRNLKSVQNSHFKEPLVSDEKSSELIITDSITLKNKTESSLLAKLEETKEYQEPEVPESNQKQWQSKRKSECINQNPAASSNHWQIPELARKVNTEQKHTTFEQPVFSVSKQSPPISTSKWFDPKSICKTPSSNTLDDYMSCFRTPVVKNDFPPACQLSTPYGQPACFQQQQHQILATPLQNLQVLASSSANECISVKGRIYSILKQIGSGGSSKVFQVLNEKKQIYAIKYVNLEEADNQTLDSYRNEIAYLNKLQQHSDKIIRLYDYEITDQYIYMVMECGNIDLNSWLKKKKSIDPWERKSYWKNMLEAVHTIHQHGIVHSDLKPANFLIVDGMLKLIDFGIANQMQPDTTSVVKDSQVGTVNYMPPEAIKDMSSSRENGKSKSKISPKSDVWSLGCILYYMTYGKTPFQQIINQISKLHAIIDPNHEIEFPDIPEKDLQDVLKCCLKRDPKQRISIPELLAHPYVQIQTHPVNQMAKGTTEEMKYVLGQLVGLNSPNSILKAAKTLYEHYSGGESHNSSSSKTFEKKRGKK

[1] = test system: colon cancer cells (HCT116); assay: Cancer cell line growth inhibition (SRB assay); format: cell-based; conditions: read-out: Cancer Cell Line GI50 Range HCT116
[2] = test system: ovarian cancer cells (PA-1); assay: Cancer cell line growth inhibition (SRB assay); format: cell-based; conditions: read-out: Cancer Cell Line GI50 Range PA-1
TICs (Colon 12) = assay: Colon tumor-initiating cell growth inhibition (Alamar Blue); format: cell-based; conditions: 9 days, read-out: Tumor Initiating Cell GI50 Range Colon 12
TICs (Ovarian 2393A) = assay: Ovarian tumor-initiating cell growth inhibition (Alamar Blue); format: cell-based; conditions: 6 days, read-out: Tumor Initiating Cell GI50 Range Ovarain 2393A
[3] = Homo sapiens, HCT-116, HCT116 colon cancer cells, SRB assay
[4] = PA-1 ovarian cancer cells, SRB assay
[5] = 144 h, ovarian TICs, Alamar Blue

## COCCN1CCC(Oc2ccc(-c3n[nH]c4ccc(C(=O)N[C@H](c5cccs5)C5CC5)cc34)cc2)CC1 [Example A163]
Human TTK; read-out: TTK IC50 Range
  IC50: < 100 nM
[1]; [3]
  GI50: < 100 nM
[2]; [4]
  GI50: < 100 nM
TICs (Colon 12); 216 h, colon TICs, Alamar Blue
  GI50: 100 to 500 nM
TICs (Ovarian 2393A); [5]
  GI50: 100 to 500 nM

## CN1[C@@H]2CC[C@H]1C[C@@H](Oc1ccc(-c3n[nH]c4ccc(C(=O)NC(c5ncccn5)C5CCCC5)cc34)cc1)C2 (stereo partly drawn) [Example A385, N-(cyclopentyl(pyrimidin-2-yl)methyl)-3-(4-(((1R,3R,5S)-8-methyl-8-azabicyclo[3.2.1]octan-3-yl)oxy)phenyl)-1H-indazole-5-carboxamide]
Human TTK; read-out: TTK IC50 Range
  IC50: < 100 nM
[1]; Homo sapiens, HCT-116
  GI50: < 100 nM
[2]; Homo sapiens, PA-1
  GI50: < 100 nM
TICs (Colon 12); 216 h, Colon 12 TICs
  GI50: 100 to 500 nM
TICs (Ovarian 2393A); 144 h, Ovarian 2393A TICs
  GI50: < 100 nM

## O=C(N[C@@H](c1ccccn1)C1CC1)c1ccc2[nH]nc(-c3ccc(N4[C@@H]5CC[C@H]4COC5)cc3)c2c1 [Example A422, 3-(4-((1R,5S)-3-oxa-8-azabicyclo[3.2.1]octan-8-yl)phenyl)-N-((R)-cyclopropyl(pyridin-2-yl)methyl)-1H-indazole-5-carboxamide]
Human TTK; read-out: TTK IC50 Range
  IC50: < 100 nM
[1]; Homo sapiens, HCT-116
  GI50: < 100 nM
[2]; Homo sapiens, PA-1
  GI50: < 100 nM
TICs (Colon 12); 216 h, Colon 12 TICs
  GI50: < 100 nM
TICs (Ovarian 2393A); 144 h, Ovarian 2393A TICs
  GI50: 100 to 500 nM

## CN1CCC(Oc2ccc(-c3n[nH]c4ccc(C(=O)NCC5(N6CCOCC6)CCCCC5)cc34)cc2)CC1 [Example A449, 3-(4-((1-methylpiperidin-4-yl)oxy)phenyl)-N-((1-morpholinocyclohexyl)methyl)-1H-indazole-5-carboxamide]
Human TTK; read-out: TTK IC50 Range
  IC50: < 100 nM
[1]; [3]
  GI50: < 100 nM
TICs (Colon 12); 216 h, colon TICs, Alamar Blue
  GI50: < 100 nM
TICs (Ovarian 2393A); [5]
  GI50: 100 to 500 nM

## C[C@@H](O)C(=O)N1CCC(Oc2ccc(-c3n[nH]c4ccc(C(=O)N[C@H](c5ccccc5)C5CC5)cc34)cc2)CC1 [Example A379, N-((S)-cyclopropyl(phenyl)methyl)-3-(4-((1-((R)-2-hydroxypropanoyl)piperidin-4-yl)oxy)phenyl)-1H-indazole-5-carboxamide]
Human TTK; read-out: TTK IC50 Range
  IC50: < 100 nM
[1]; Homo sapiens, HCT-116
  GI50: 100 to 500 nM
[2]; Homo sapiens, PA-1
  GI50: 100 to 500 nM
TICs (Colon 12); 216 h, Colon 12 TICs
  GI50: < 100 nM
TICs (Ovarian 2393A); 144 h, Ovarian 2393A TICs
  GI50: 100 to 500 nM

## O=C(N[C@H](c1ccccn1)C1CC1)c1ccc2[nH]nc(-c3ccc(N4C5CCC4CC(O)C5)cc3)c2c1 (stereo partly drawn) [Example A361, N-((S)-cyclopropyl(pyridin-2-yl)methyl)-3-(4-((1R,3S,5S)-3-hydroxy-8-azabicyclo[3.2.1]octan-8-yl)phenyl)-1H-indazole-5-carboxamide]
Human TTK
  IC50: < 100 nM
[1]; Homo sapiens, HCT-116
  GI50: < 100 nM
[2]; Homo sapiens, PA-1
  GI50: < 100 nM
TICs (Colon 12); 216 h, Colon 12 TICs
  GI50: < 100 nM
TICs (Ovarian 2393A); 144 h, Ovarian 2393A TICs
  GI50: < 100 nM

## O=C(N[C@H](c1ccccn1)C1CC1)c1ccc2[nH]nc(-c3ccc(OC4CC5CCC(C4)N5)cc3)c2c1 (stereo partly drawn) [Example A374, 3-(4-((1R,3R,5S)-8-azabicyclo[3.2.1]octan-3-yloxy)phenyl)-N-((S)-cyclopropyl(pyridin-2-yl)methyl)-1H-indazole-5-carboxamide]
Human TTK; read-out: TTK IC50 Range
  IC50: < 100 nM
[1]; Homo sapiens, HCT-116
  GI50: < 100 nM
[2]; Homo sapiens, PA-1
  GI50: < 100 nM
TICs (Colon 12); 216 h, Colon 12 TICs
  GI50: > 500 nM
TICs (Ovarian 2393A); 144 h, Ovarian 2393A TICs
  GI50: 100 to 500 nM

## O=CN1C2CCC1CC(Oc1ccc(-c3n[nH]c4ccc(C(=O)N[C@H](c5ccccc5)C5CC5)cc34)cc1)C2 (stereo partly drawn) [Example A328, N-((S)-cyclopropyl(phenyl)methyl)-3-(4-(((1R,3R,5S)-8-formyl-8-azabicyclo[3.2.1]octan-3-yl)oxy)phenyl)-1H-indazole-5-carboxamide]
Human TTK; read-out: TTK IC50 Range
  IC50: < 100 nM
[1]; Homo sapiens, HCT-116
  GI50: < 100 nM
[2]; Homo sapiens, PA-1
  GI50: < 100 nM
TICs (Colon 12); 216 h, Colon 12 TICs
  GI50: < 100 nM
TICs (Ovarian 2393A); 144 h, Ovarian 2393A TICs
  GI50: 100 to 500 nM

## CN1CCC(Oc2ccc(-c3n[nH]c4ccc(C(=O)NCC5(c6cccnc6)CCCCC5)cc34)cc2)CC1 [Example A482, 3-(4-((1-methylpiperidin-4-yl)oxy)phenyl)-N-((1-(pyridin-3-yl)cyclohexyl)methyl)-1H-indazole-5-carboxamide]
Human TTK; read-out: TTK IC50 Range
  IC50: < 100 nM
[1]; [3]
  GI50: 100 to 500 nM
[2]; [4]
  GI50: 100 to 500 nM
TICs (Colon 12); 216 h, colon TICs, Alamar Blue
  GI50: > 500 nM
TICs (Ovarian 2393A); [5]
  GI50: > 500 nM

## O=C(NC(c1ccccn1)C1CCCC1)c1ccc2[nH]nc(-c3ccc(N4CCN(C5COC5)CC4)cc3)c2c1 (stereo not drawn) [Example A402, N-(cyclopentyl(pyridin-2-yl)methyl)-3-(4-(4-(oxetan-3-yl)piperazin-1-yl)phenyl)-1H-indazole-5-carboxamide]
Human TTK; read-out: TTK IC50 Range
  IC50: < 100 nM
[1]; Homo sapiens, HCT-116
  GI50: < 100 nM
[2]; Homo sapiens, PA-1
  GI50: < 100 nM
TICs (Colon 12); 216 h, Colon 12 TICs
  GI50: < 100 nM
TICs (Ovarian 2393A); 144 h, Ovarian 2393A TICs
  GI50: < 100 nM

## CC(C)(O)CN1CCC(Oc2ccc(-c3n[nH]c4ccc(C(=O)N[C@H](c5ccccn5)C5CC5)cc34)cc2)CC1 [Example A217, (S)-N-(cyclopropyl(pyridin-2-yl)methyl)-3-(4-((1-(2-hydroxy-2-methylpropyl)piperidin-4-yl)oxy)phenyl)-1H-indazole-5-carboxamide]
Human TTK; read-out: TTK IC50 Range
  IC50: < 100 nM
[1]; Homo sapiens, HCT-116
  GI50: < 100 nM
[2]; Homo sapiens, PA-1
  GI50: < 100 nM
TICs (Colon 12); 216 h, Colon 12 TICs
  GI50: 100 to 500 nM
TICs (Ovarian 2393A); 144 h, Ovarian 2393A TICs
  GI50: 100 to 500 nM

## CC(C)[C@H](NC(=O)c1ccc2[nH]nc(-c3ccc(N4CCCN(C5COC5)CC4)cc3)c2c1)c1ccccc1Cl [Example A369, (S)-N-(1-(2-chlorophenyl)-2-methylpropyl)-3-(4-(4-(oxelan-3-yl)-1,4-diazepan-l-yl)phenyl)-1H-indazole-5-carboxamide]
Human TTK; read-out: TTK IC50 Range
  IC50: < 100 nM
[1]; Homo sapiens, HCT-116
  GI50: < 100 nM
[2]; Homo sapiens, PA-1
  GI50: < 100 nM
TICs (Colon 12); 216 h, Colon 12 TICs
  GI50: < 100 nM
TICs (Ovarian 2393A); 144 h, Ovarian 2393A TICs
  GI50: < 100 nM

## CC(C)C[C@H](NC(=O)c1ccc2[nH]nc(-c3ccc(N4C5CCC4CC(O)C5)cc3)c2c1)c1ccccn1 (stereo partly drawn) [Example A301, 3-(4-((1R,3S,5S)-3-hydroxy-8-azabicyclo[3.2.1]octan-8-yl)phenyl)-N-((S)-3-methyl-1-(pyridin-2-yl)butyl)-1H-indazole-5-carboxamide]
Human TTK
  IC50: < 100 nM
[1]; Homo sapiens, HCT-116
  GI50: < 100 nM
[2]; Homo sapiens, PA-1
  GI50: < 100 nM
TICs (Colon 12); 216 h, Colon 12 TICs
  GI50: < 100 nM
TICs (Ovarian 2393A); 144 h, Ovarian 2393A TICs
  GI50: < 100 nM

## CN1CCN(c2ccc(-c3n[nH]c4ccc(C(=O)NCC5(N6CCOCC6)CCCCC5)cc34)cc2)CC1 [Example A453, 3-(4-(4-methylpiperazin-1-yl)phenyl)-N-((1-morpholinocyclohexyl)methyl)-1H-indazole-5-carboxamide]
Human TTK; read-out: TTK IC50 Range
  IC50: < 100 nM
[1]; [3]
  GI50: < 100 nM
[2]; [4]
  GI50: < 100 nM
TICs (Colon 12); 216 h, colon TICs, Alamar Blue
  GI50: < 100 nM
TICs (Ovarian 2393A); [5]
  GI50: 100 to 500 nM

## O=CN1[C@@H]2CC[C@H]1C[C@@H](Oc1ccc(-c3n[nH]c4ccc(C(=O)NC(c5ccsc5)C5CCC5)cc34)cc1)C2 (stereo partly drawn) [Example A329, N-(cyclobutyl(thiophen-3-yl)methyl)-3-(4-(((1R,3R,5S)-8-formyl-8-azabicyclo[3.2.1]octan-3-yl)oxy)phenyl)-1H-indazole-5-carboxamide]
Human TTK; read-out: TTK IC50 Range
  IC50: < 100 nM
[1]; Homo sapiens, HCT-116
  GI50: < 100 nM
[2]; Homo sapiens, PA-1
  GI50: < 100 nM
TICs (Colon 12); 216 h, Colon 12 TICs
  GI50: < 100 nM
TICs (Ovarian 2393A); 144 h, Ovarian 2393A TICs
  GI50: < 100 nM

## CN1CCC(Nc2ccc(-c3n[nH]c4ccc(NC(=O)C(c5ccsc5)N5CCCC5)cc34)cc2)CC1 (stereo not drawn) [Example A25]
Human TTK; read-out: TTK IC50 Range
  IC50: < 100 nM
[1]; HCT116 colon cancer cells, SRB assay
  GI50: < 100 nM
TICs (Colon 12); colon TICs, Alamar Blue
  GI50: 100 to 500 nM
TICs (Ovarian 2393A); ovarian TICs, Alamar Blue
  GI50: < 100 nM
